How the values were obtained:
Male CD rats = assay: Echocardiography/ultrasound protocol: fractional shortening (% FS) during intravenous infusion, MEE; format: in vivo; design: unit not given here; conditions: Echocardiography, exposure at 10% increase in % FS from baseline, rat, formulation 40% HPbCD, corrected for rat plasma protein binding
Protocol: Formulations: A compound as disclosed herein and water were admixed together. Either 30% wt/vol or 40% wt/vol of hydroxypropyl beta-cyclodextrin (HPBCD) was added and the mixture stirred until dissolved.
Echocardiography/ultrasound protocol: Serial echocardiography was conducted with the aid of an imaging system suitable for rodent cardiac ultrasound. Male CD rats (6-10 weeks of age; 6-12 animals per group) were cannulated with a jugular vein catheter to enable delivery of test article by intravenous infusion. […] An imaging probe was fixed in position to acquire short axis (SAX), motion (M)—mode images of the left cardiac ventricle at the level of the papillary muscles. Baseline data was acquired prior to initiating test article delivery. Test article (compound as disclosed herein in a HPBCD formulation), or vehicle control, was delivered with the aid of an infusion pump connected to the jugular vein catheter. Infusion rate of test article was increased at 15 min intervals, to a maximum of 5 mL/kg/hr. Ultrasound images were acquired at 5 min intervals. Additionally whole blood (not exceeding 10 uL) was collected via a tail nick at the same 5 min intervals for subsequent exposure determination.
Whole blood samples were analyzed by protein precipitation and liquid chromatography tandem mass spectrometry (LC-MS/MS) using multiple reaction monitoring (MRM) in positive ionization mode. The lower limit of quantitation (LLOQ) in the assay was 1 ng/mL and the upper limit of quantitation (ULOQ) was 10,000 ng/mL.
Offline data analysis of the SAX M-mode ultrasound images was conducted to derive measures of left ventricular end diastolic diameter (LVEDD), left ventricular end systolic diameter (LVESD) and subsequent calculation of fractional shortening (% FS) using the following formula: % FS=((LVEDD−LVESD)/LVEDD)*100. Minimally efficacious exposure (MEE) was defined as the exposure at which a 10% increase in % FS from baseline was observed. The MEE was derived by plotting assayed exposures against % FS and using non-linear curve fitting (log(exposure) vs. % FS; variable slope, 4 parameters). Response to vehicle at each time point was averaged and all test article responses were normalized to baseline and subtracted from time matched (averaged) vehicle responses.

[1] = test system: Bovine cardiac myofibrils; assay: In vitro model of dose-dependent myofibril ATPase modulation (AC1.4, pyruvate kinase/lactate dehydrogenase-coupled ATPase assay at pCa25); format: biochemical; conditions: concentration at which ATPase activity was 1.4-fold higher than the bottom of the dose curve, mean of a minimum of two independent tests
How it was run: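 Detergent-skinned bovine cardiac myofibrils (typically 0.25-1.0 mg/ml) in Ca-buffered (EGTA/CaCl2) PK/LDH-coupled ATPase assay: 12 mM K-PIPES pH 6.80, 2 mM MgCl2, 1 mM ATP, 1 mM DTT, 0.5 mM NADH, 1.5 mM PEP. Hydrolysis followed at 340 nm; dose response fit to 4-parameter equation; AC1.4 is mean of ≥2 tests.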

Row | Compound | MEE* (unbound), minimally efficacious exposure (Male CD rats) | AC1.4 [1] [µM]
1 | CS(=O)(=O)c1cncc(C(=O)N2[C@@H](C(=O)N[C@@H](c3cc(F)c(C(F)(F)F)cc3F)C3CC3)C[C@H]3C[C@H]32)c1 [Example 214, (1R,3R,5R)—N—((R)-cyclopropyl(2,5-difluoro-4-(trifluoromethyl)phenyl)methyl)-2-(5-(methylsulfonyl)nicotinoyl)-2-azabicyclo[3.1.0]hexane-3-carboxamide] | 0.12 | 0.4665
2 | CS(=O)(=O)c1cc(C(=O)N2[C@@H](C(=O)N[C@@H](c3cc(F)c(C(F)(F)F)cc3F)C3CC3)C[C@H]3C[C@H]32)ccn1 [Example 279, (1R,3R,5R)—N—((R)-cyclopropyl(2,5-difluoro-4-(trifluoromethyl)phenyl)methyl)-2-(2-(methylsulfonyl)isonicotinoyl)-2-azabicyclo[3.1.0]hexane-3-carboxamide] | 0.68 | 0.7092
